Tests used:
Type in all cases: in vivo
[1] = tested on: pigweed (Amaranthus retroflexus); assay: Test A postemergence; settings: Amaranthus retroflexus, post-emergence, 240 h
Method in brief: (§1)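 Ratings of 0 (no effect) to 100 (complete control) come from visual comparison with untreated controls roughly 10 d after treatment. Test chemicals, formulated in a non-phytotoxic solvent mixture with surfactant, were applied either as a preemergence directed soil spray on seeded soil or postemergence to one- to two-leaf plants 2 to 10 cm tall.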

[2] = tested on: barnyardgrass (Echinochloa crus-galli); assay: Test A postemergence; settings: Echinochloa crus-galli, post-emergence, 240 h
Method in brief: as §1

[3] = tested on: blackgrass (Alopecurus myosuroides); assay: Test A postemergence; settings: Alopecurus myosuroides, post-emergence, 240 h
Method in brief: as §1

[4] = tested on: Galium (catchweed bedstraw, Galium aparine); assay: Test A postemergence; settings: Galium, post-emergence, 240 h
Method in brief: as §1

corn (Zea mays) = assay: Test A postemergence; settings: Zea mays, post-emergence, 240 h
Method in brief: as §1

Kochia (Kochia scoparia) [5] = assay: Test A postemergence; settings: Bassia scoparia, post-emergence, 240 h
Method in brief: as §1

[6] = tested on: wheat (Triticum aestivum); assay: Test A postemergence; settings: Triticum aestivum, post-emergence, 240 h
Method in brief: as §1

[7] = tested on: ragweed (common ragweed, Ambrosia elatior); assay: Test A postemergence; settings: Ambrosia artemisiifolia, post-emergence, 240 h
Method in brief: as §1

[8] = tested on: ryegrass, Italian (Italian ryegrass, Lolium multiflorum); assay: Test A postemergence; settings: Lolium multiflorum, post-emergence, 240 h
Method in brief: as §1

[9] = tested on: giant foxtail (Setaria faberii); assay: Test A postemergence; settings: Setaria faberi, post-emergence, 240 h
Method in brief: as §1

[10] = tested on: pigweed (Amaranthus retroflexus); assay: Test A preemergence; settings: Amaranthus retroflexus, pre-emergence, 240 h, read-out: Plant response rating, Pigweed
Kochia (Kochia scoparia) [11] = assay: Test A preemergence; settings: Bassia scoparia, pre-emergence, 240 h, read-out: Plant response rating, Kochia
Method in brief: as §1

[12] = tested on: ragweed (common ragweed, Ambrosia elatior); assay: Test A preemergence; settings: Ambrosia artemisiifolia, pre-emergence, 240 h, read-out: Plant response rating, Ragweed
Method in brief: as §1

[13] = tested on: ryegrass, Italian (Italian ryegrass, Lolium multiflorum); assay: Test A preemergence; settings: Lolium multiflorum, pre-emergence, 240 h, read-out: Plant response rating, Ryegrass, Italian
Method in brief: as §1

[14] = tested on: giant foxtail (Setaria faberii); assay: Test A preemergence; settings: Setaria faberi, pre-emergence, 240 h, read-out: Plant response rating, Foxtail, Giant
Method in brief: as §1

[15] = 125 g ai/ha, preemergence, visual rating after approx. 10 d, 0 to 100 scale where 0 is no effect and 100 is complete control
[16] = Preemergence, 31 g ai/ha, 0 to 100 scale (0 no effect, 100 complete control)

## CN1C[C@H](c2ccc(C(F)F)cc2)[C@@H](C(=O)Nc2ccccc2F)C1=O [Compound 803]
[1]; 125 g ai/ha, postemergence, visual injury rating after approximately 10 d, read-out: Pigweed plant response rating (0 to 100 scale, 0 no effect, 100 complete control)
  pest or weed control at 125 g/ha: 40%
[1]; Postemergence, 31 g ai/ha, visual injury after approx. 10 d, 0 to 100 scale, 0 no effect, 100 complete control, read-out: Plant response rating, Pigweed
  pest or weed control at 31 g/ha: 30%
[2]; 125 g ai/ha, postemergence, visual injury rating after approximately 10 d, read-out: Barnyardgrass plant response rating (0 to 100 scale, 0 no effect, 100 complete control)
  pest or weed control at 125 g/ha: 80%
[2]; Postemergence, 31 g ai/ha, visual injury after approx. 10 d, 0 to 100 scale, 0 no effect, 100 complete control, read-out: Plant response rating, Barnyardgrass
  pest or weed control at 31 g/ha: 80%
[3]; 125 g ai/ha, postemergence, visual injury rating after approximately 10 d, read-out: Blackgrass plant response rating (0 to 100 scale, 0 no effect, 100 complete control)
  pest or weed control at 125 g/ha: 50%
[3]; Postemergence, 31 g ai/ha, visual injury after approx. 10 d, 0 to 100 scale, 0 no effect, 100 complete control, read-out: Plant response rating, Blackgrass
  pest or weed control at 31 g/ha: 20%
[4]; 125 g ai/ha, postemergence, visual injury rating after approximately 10 d, read-out: Galium plant response rating (0 to 100 scale, 0 no effect, 100 complete control)
  pest or weed control at 125 g/ha: 60%
[4]; Postemergence, 31 g ai/ha, visual injury after approx. 10 d, 0 to 100 scale, 0 no effect, 100 complete control, read-out: Plant response rating, Galium
  pest or weed control at 31 g/ha: 30%
Corn (Zea mays); 125 g ai/ha, postemergence, visual injury rating after approximately 10 d, read-out: Corn plant response rating (0 to 100 scale, 0 no effect, 100 complete control)
  plant injury at 125 g/ha: 90%
Corn (Zea mays); Postemergence, 31 g ai/ha, visual injury after approx. 10 d, 0 to 100 scale, 0 no effect, 100 complete control
  Corn plant response rating (crop injury, 0 = no effect, 100 = complete kill) at 31 g/ha: 20%
Kochia (Kochia scoparia) [5]; 125 g ai/ha, postemergence, visual injury rating after approximately 10 d, read-out: Kochia plant response rating (0 to 100 scale, 0 no effect, 100 complete control)
  pest or weed control at 125 g/ha: 70%
Kochia (Kochia scoparia) [5]; Postemergence, 31 g ai/ha, visual injury after approx. 10 d, 0 to 100 scale, 0 no effect, 100 complete control, read-out: Plant response rating, Kochia
  pest or weed control at 31 g/ha: 50%
[6]; 125 g ai/ha, postemergence, visual injury rating after approximately 10 d, read-out: Wheat plant response rating (0 to 100 scale, 0 no effect, 100 complete control)
  plant injury at 125 g/ha: 40%
[6]; Postemergence, 31 g ai/ha, visual injury after approx. 10 d, 0 to 100 scale, 0 no effect, 100 complete control, read-out: Plant response rating, Wheat
  plant injury at 31 g/ha: 0%
[7]; 125 g ai/ha, postemergence, visual injury rating after approximately 10 d, read-out: Ragweed plant response rating (0 to 100 scale, 0 no effect, 100 complete control)
  pest or weed control at 125 g/ha: 30%
[7]; Postemergence, 31 g ai/ha, visual injury after approx. 10 d, 0 to 100 scale, 0 no effect, 100 complete control, read-out: Plant response rating, Ragweed
  pest or weed control at 31 g/ha: 30%
[8]; 125 g ai/ha, postemergence, visual injury rating after approximately 10 d, read-out: Ryegrass, Italian plant response rating (0 to 100 scale, 0 no effect, 100 complete control)
  pest or weed control at 125 g/ha: 40%
[8]; Postemergence, 31 g ai/ha, visual injury after approx. 10 d, 0 to 100 scale, 0 no effect, 100 complete control, read-out: Plant response rating, Ryegrass, Italian
  pest or weed control at 31 g/ha: 0%
[9]; 125 g ai/ha, postemergence, visual injury rating after approximately 10 d, read-out: Foxtail, Giant plant response rating (0 to 100 scale, 0 no effect, 100 complete control)
  pest or weed control at 125 g/ha: 90%
[9]; Postemergence, 31 g ai/ha, visual injury after approx. 10 d, 0 to 100 scale, 0 no effect, 100 complete control, read-out: Plant response rating, Foxtail, Giant
  pest or weed control at 31 g/ha: 90%
[10]; [15]
  pest or weed control at 125 g/ha: 60%
[10]; [16]
  pest or weed control at 31 g/ha: 40%
Kochia (Kochia scoparia) [11]; [15]
  pest or weed control at 125 g/ha: 70%
Kochia (Kochia scoparia) [11]; [16]
  pest or weed control at 31 g/ha: 50%
[12]; [15]
  pest or weed control at 125 g/ha: 60%
[12]; [16]
  pest or weed control at 31 g/ha: 30%
[13]; [15]
  pest or weed control at 125 g/ha: 0%
[13]; [16]
  pest or weed control at 31 g/ha: 0%
[14]; [15]
  pest or weed control at 125 g/ha: 90%
[14]; [16]
  pest or weed control at 31 g/ha: 90%
